This passage reports IC50 results from article PMC9456261 (International Journal of Molecular Sciences, 2022).

Read-outs that look alike come from different tables or passages of the source.

Holding throughout (assay): microbe, parasite or virus in culture
Assay type in all cases: cell-based

In test [1] the test system is SARS-CoV-2 Omicron (B.1.1.529).
Test [2] relates to SARS-CoV-2 Delta (B.1.617.2).
For test [3], the system named is SARS-CoV-2 Beta (B.1.351).
Where [4] appears, read: Severe acute respiratory syndrome coronavirus 2, Vero C1008, 72 h.

On to “4-[5-[3-[5-(2-Bromophenoxy)pentyl]-2,6-dioxo-5-methyl-3,6-dihydropyrimidin-1(^2H)-yl]pentyloxy]benzoic acid [Compound 872]”, for which the IC50 in test [1] is 7.92 µM; in test [2], greater than 50 µM; in test [3], greater than 50 µM.

Regarding `O=C(O)c1ccc(OCCCCn2c(=O)ccn(Cc3cccc4ccccc34)c2=O)cc1` [Compound 601, 4-[4-[2,6-Dioxo-3-(naphthyl-1-methyl)-3,6-dihydropyrimidin-1(^2H)-yl]butoxy]benzoic acid], the figures for the IC50 in test [1] (setting [4]), in test [2] (setting [4]) and in test [3] (setting [4]) were 27.1 µM, 32.7 µM and 32.7 µM, respectively.

For `O=c1ccn(Cc2c3ccccc3cc3ccccc23)c(=O)n1CCCCCCOc1ccc(Br)cc1` [Compound 611, 1-(Anthracen-9-ylmethyl)-3-[6-(4-bromophenoxy)hexyl]uracil], the values for the IC50 in test [1] (setting [4]), in test [2] (setting [4]) and in test [3] (setting [4]) were greater than 50 µM, 13.3 µM and greater than 50 µM, respectively.

For `O=C(O)c1ccc(OCCCCCn2c(=O)ccn(CCCCCOc3ccc(F)cc3)c2=O)cc1` [Compound 870, 4-[5-[3-[5-(4-Fluorophenoxy)pentyl]-2,6-dioxo-3,6-dihydropyrimidin-1(^2H)-yl]pentyloxy]benzoic acid], the IC50 was determined as 24.4 µM in test [1] (setting [4]), 14.6 µM in test [2] (setting [4]) and 34.1 µM in test [3] (setting [4]).

In the case of `O=C(O)c1ccc(OCCCCCn2c(=O)ccn(CCCCCOc3ccccc3Br)c2=O)cc1` [Compound 871, 4-[5-[3-[5-(2-Bromophenoxy)pentyl]-2,6-dioxo-3,6-dihydropyrimidin-1(^2H)-yl]pentyloxy]benzoic acid], the IC50 is greater than 50 µM in test [1] (setting [4]), 26.6 µM in test [2] (setting [4]) and 27.3 µM in test [3] (setting [4]).

As for `O=C(O)c1ccc(OCCCCn2c(=O)ccn(CCCOc3ccc(Br)cc3)c2=O)cc1` [Compound 873, 4-[4-[3-[3-(4-Bromophenoxy)propyl]-2,6-dioxo-3,6-dihydropyrimidin-1(^2H)-yl]butoxy]benzoic acid], the results for the IC50 in test [1] (setting [4]), in test [2] (setting [4]) and in test [3] (setting [4]) were 28.2 µM, greater than 50 µM and 50 µM, respectively.

Turning to `Cc1cc(C)cc(OCCCCCn2ccc(=O)n(CCCCCOc3ccc(C(=O)O)cc3)c2=O)c1` [Compound 874, 4-[5-[3-[5-(3,5-Dimethylphenoxy)pentyl]-2,6-dioxo-3,6-dihydropyrimidin-1(^2H)-yl]pentyloxy]benzoic acid], the IC50 is greater than 50 µM in test [1] (setting [4]), 30.2 µM in test [2] (setting [4]) and 29.1 µM in test [3] (setting [4]).

Take `O=C(O)c1ccc(Cn2c(=O)ccn(CCCCCOc3ccc(Br)cc3)c2=O)cc1` [Compound 875]: the IC50 in test [1] (setting [4]) was found to be 22.6 µM; in test [2] (setting [4]), 30.7 µM; in test [3] (setting [4]), 33.1 µM.

For `O=C(O)c1ccc(OCCCCCn2c(=O)ccn(Cc3c4ccccc4cc4ccccc34)c2=O)cc1` [Compound 876], the figures for the IC50 in test [1] (setting [4]), in test [2] (setting [4]) and in test [3] (setting [4]) were 22.4 µM, 29.3 µM and 23.8 µM, respectively.

In the case of `O=C(O)c1ccc(OCCCCn2c(=O)ccn(Cc3ccc4ccccc4c3)c2=O)cc1` [Compound 1005, 4-[4-[2,6-Dioxo-3-(naphthyl-2-methyl)-3,6-dihydropyrimidin-1(^2H)-yl]butoxy]benzoic acid], the IC50 was greater than 50 µM in test [1] (setting [4]), 27.8 µM in test [2] (setting [4]) and 15.5 µM in test [3] (setting [4]).

As to `O=C(O)c1ccc(OCCCCn2c(=O)ccn(Cc3ccc(Br)c4ccccc34)c2=O)cc1` [Compound 1006, 4-[4-[3-(4-Bromonaphthyl-1-methyl)-2,6-dioxo-3,6-dihydropyrimidin-1(2H)-yl]butoxy]benzoic acid], the IC50 in test [1] (setting [4]) is greater than 50 µM; in test [2] (setting [4]), 27.4 µM; in test [3] (setting [4]), greater than 50 µM.

Turning to `O=C(O)c1ccc(OCCCn2c(=O)ccn(CCCCCCCCCCCCOc3ccc(Br)cc3)c2=O)cc1` [Compound 1007, 4-[3-[3-[12-(4-Bromophenoxy)dodecyl]-2,6-dioxo-3,6-dihydropyrimidin-1(^2H)-yl]propoxy]benzoic acid], the IC50 in test [1] (setting [4]), in test [2] (setting [4]) and in test [3] (setting [4]) was greater than 50 µM throughout.
